Reference: article PMC4459817, “Vasculotide reduces endothelial permeability and tumor cell extravasation in the absence of binding to or agonistic activation of Tie2” (EMBO Molecular Medicine, 2015)

Legend:
[1] = system: orthotopic LM2-4luc breast cancer xenografts; experiment: orthotopic LM2-4luc xenografts, unresected: primary tumor and spontaneous metastasis; type: in vivo, human LM2-4luc cells in CB-17 SCID mice; conditions: for primary tumor growth: VT from 10DPI, SU 7 days from 17DPI, n = 8, volume or bioluminescence, Fig5A–C
Source text: The first experiment involved VT and SU treatments in the presence of an unresected primary tumor (Fig5). At 10 days post-implantation (DPI), when primary tumors reached an average size of ∽175 mm^3, mice were randomized into groups and chronic VT therapy was initiated. At 17DPI, when tumors reached an average size (∽400 mm^3) where tumor debulking is typically required for long-term metastasis experiments, a 7-day anti-angiogenic SU treatment was initiated in lieu of surgical resection.
(§1) In vivo experiments were performed in strict accordance with protocols approved by the Sunnybrook Research Institute Animal Care Committee, accredited by the Canadian Council of Animal Care. All surgical, imaging, and euthanasia procedures were performed under inhaled isoflurane anesthesia. Experimental metastasis models involved injections of 10^6 tumor cells, suspended in 200 μl serum-free DMEM, into the mouse tail vein. LM2-4^luc implantations were performed on 6 to 8-week-old female CB-17 SCID mice (Charles River Canada). HT29^luc implantations were performed on 19- to 20-week-old male and 11- to 12-week-old female YFP-SCID mice (bred in-house). SN12^luc implantations were performed on 9-week-old male YFP-SCID mice. Spontaneous metastasis models involved orthotopic implantations of 2 × 10^6 LM2-4^luc cells/50 μl serum-free DMEM in the right inguinal mammary fat pads of 6-week-old female CB-17 SCID mice.
(§2) Sunitinib malate (SU), from Pfizer or LC Laboratories, and its vehicle were formulated as described before (Ebos et al, [2009]). SU was administered by oral gavage (PO), once daily, at a dose of 60 mg/kg mouse weight. Vasculotide (VT): VT synthesized at the Sunnybrook Research Institute (Toronto, ON, Canada) was used in experiments described in Fig2(A–D) and Supplementary Fig S5(A and B). VT synthesized by American Peptide (Sunnyvale, CA, USA) was used in experiments described in Fig5. VT synthesized by Bachem UK Ltd was used in experiments described in Figs1, 2(E–H), 3, 4, 6–9, Supplementary Figs S2, and S5(C and D). Lyophilized product was reconstituted in PBS to 500 μg/500 μl stock aliquots and stored at −80°C. As needed, stock aliquots were diluted with PBS to a 250 ng/50 μl working concentration and stored in 0.4–1 ml aliquots at −80°C. VT (at a standard dose of 250 ng/mouse) or its vehicle (PBS) was administered to mice by intraperitoneal (IP) injections every other day.
(§3) 5. Bioluminescence imaging (BI) of tumor burden
(§4) For in vivo BI: Mice were injected intraperitoneally with 150mg/kg luciferin (Promega) 10 minutes prior to and anesthetized with isofluorane just before luminescent pseudocolor imaging (uniform settings: CCD camera locked at -105 °C, exposure=60s, f/1, subject size=1.5cm, bin=8, FOV=23.2cm, full image correction) using the IVIS 200 Imaging System (Caliper/PerkinElmer). Using the Living Image software (v2.50.1, Xenogen), weekly images were analyzed under uniform color range on grayscale photographic overlay. Total fluxes (photons/sec) were quantified within consistent regions of interest and statistically compared ideally at a timepoint before any deaths have occurred.
(§5) For ex vivo BI: Mice were sacrificed at 7 mins after luciferin injections, then organs of interest were dissected and individually placed within 24-well plates for imaging at 10 min post-luciferin injection.
6. Immunohistochemical (IHC) analysis of lung metastases
Surgically dissected lungs were fixed in 4% paraformaldehyde (PFA) overnight and stored in 70% ethanol. Three paraffin-embedded cross-sections per lung, 5-μm thick, 60 μ m apart, were subjected to IHC staining using a serum-free protein block (Dako X0909), an anti-human vimentin antibody (clone V9, Invitrogen 18-0052; 1:100 in Dako S3022 diluent), the universal ‘LSAB+, HRP’ detection kit (Dako K0690), the DAB+ chromogen-substrate system (Dako K3467) and hematoxylin counterstain.
Quantification procedure involved visual survey of entire tissue sections and tallying of DAB-stained […]

[2] = system: residual and metastatic LM2-4luc disease after resection; experiment: orthotopic LM2-4luc xenografts with surgical resection of primary tumor (adjuvant setting); type: in vivo, human LM2-4luc cells in CB-17 SCID mice
Source text: A second orthotopic implantation experiment involved surgical resection of primary LM2-4^luc tumors (∽400 mm^3) at 17DPI (Fig6) to model post-operative metastases arising from minimal residual disease (MRD). MRD includes the regrowth of incompletely resected mammary tumors, as well as circulating or disseminated tumor cells released from primary tumors prior to or at the time of surgical resection. VT was initiated 6 days prior to surgery and maintained chronically, while adjuvant SU (1-week or 3-week 60 mg/kg/day) treatments were initiated 1 day post-surgery (Fig6A).
as §1, §2, §3, §4, §5
6. Immunohistochemical (IHC) analysis of lung metastases […]

[3] = 39DPI, SU 1wk with or without VT, Fig5F

| Compound | incidence of lymph node metastases (ex vivo bioluminescent imaging) ([1]; 32DPI, vehicle 2/8, Fig5F) | incidence of lung metastases (ex vivo bioluminescent imaging) ([1]; 32DPI, vehicle 6/8, Fig5F) | mean thickness of the viable peripheral regions of primary tumors (H&E) ([1]; 22 days of VT treatment, Fig5D) | mean thickness of the CAIX+ hypoxic edge of primary tumors ([1]; 22 days of VT treatment, Fig5E) | primary tumor growth [1] | lung metastatic nodule size distribution (human vimentin IHC) ([1]; VT monotherapy, P = 0.05–0.09, Fig5G) | anti-metastatic benefit of concurrent VT treatment by regional IHC analysis ([1]; VT with SU, Fig5G) | metastatic involvement in the lungs (EVBI) ([1]; VT-treated groups vs vehicle or SU monotherapy, Fig5F) | tumor bioluminescence, VT combined with 1-wk SU ([2]; Fig6C and D) | survival advantage ([2]; VT monotherapy, Plog-rank = 0.42, Fig6A) | thoracic metastatic dissemination vs. abdominal tumor growth ([2]; thoracic P = 0.04, abdominal P > 0.05 for VT, Fig6C, D) | incidence of lung metastases (ex vivo bioluminescent imaging) [1, 3] | incidence of lymph node metastases (ex vivo bioluminescent imaging) [1, 3] | primary tumor burden by volume ([1]; SU 7-day, one-way ANOVA, Fig5B) | primary tumor burden by bioluminescent activity ([1]; SU 7-day, one-way ANOVA, Fig5C) | thoracic metastases benefit ([2]; 10 days after discontinuation of 1-week SU, Fig6C) | abdominal tumor growth vs. thoracic metastatic dissemination ([2]; adjuvant SU, Fig6C, D) |
| --- | --- | --- | --- | --- | --- | --- | --- | --- | --- | --- | --- | --- | --- | --- | --- | --- | --- |
| CHHHRHSF [Vasculotide, 4-armed maleimide-functionalized polyethylene glycol (PEG) backbone to link together four cysteine-capped T7 peptides, that is, CHHHRHSF] | 1/8 | 2/8 | did not alter the mean thickness of the viable peripheral regions | did not alter the mean thickness of the CAIX^+ hypoxic edge | did not alter the growth kinetics of primary tumors | delayed the seeding or progression of lung micrometastases | not detectable by regional IHC analysis | trends of reduced incidences of metastatic involvement in the lungs, but no change in the lymph nodes | lowered tumor bioluminescence to a similar extent as 3-wk SU monotherapy | not statistically significant | more effective at inhibiting thoracic metastatic dissemination (Fig6C, P = 0.04) than abdominal tumor growth (Fig6D, P > 0.05) | – | – | – | – | – | – |
| CCN(CC)CCNC(=O)c1c(C)[nH]c(/C=C2\C(=O)Nc3ccc(F)cc32)c1C [sunitinib, reference compound] | – | – | – | – | effectively stabilized primary tumor growth | – | – | – | – | – | – | 4/8 | 4/8 | significantly lowered primary tumor burden | significantly lowered primary tumor burden | no benefit was observed with respect to thoracic metastases | more effective at inhibiting abdominal tumor growth (Fig6D) than thoracic metastatic dissemination |
